Converted amounts (≈) assume the structure as drawn.
Tests used:
[1] = system: Staphylococcus aureus Strain 1 (BSAC04(1)) (Clinical isolate from Glasgow Royal Infirmary); assay: MIC, Staphylococcus aureus Strain 1; format: cell-based
Method: The effects of compounds of the invention in relation to inhibiting the growth of various microorganisms was determined using methods known to those skilled in the art, for example in vitro methods as described in J. Med. Chem. 47, 2133-2156 (2004) and in vivo methods as described in J. Med. Microbiol. 46, 208-213 (1997), the disclosures of which documents are hereby incorporated by reference.
(§1) In particular, minimum inhibitory concentrations (MICs) against microorganisms (e.g. S. Aureus, Streptococcus faecalis, Aspergillus niger, Candida albicans or Mycobacterium fortuitum) for compounds of the invention may be measured using procedures such as those described in A. J. Drummond and R. D. Waigh “The development of microbiological methods for phytochemical screening” Recent Res. Devel. Phytochem. 4, 143-152 (2000), the disclosures of which document are hereby incorporated by reference.
(§2) Sample dilutions were typically prepared by dissolving the test sample (2 mg) in sterile water (10 mL) to provide a working concentration of 200 μg/ml. The test wells on each 96 well microtitre plate were initially inoculated with culture medium (100 μL) using Mueller-Hinton Broth for antibacterial assays and Sabouraud Broth for antifungal assays. A solution of each test sample (100 μL) was added to one row of each plate and a series of doubling dilutions made for successive rows. Incubation was at 37° C. for antibacterial assay and 25° C. for antifungal assay. […] From the observed pattern of colour, the MIC was determined. All tests included sterility and growth controls.

[2] = system: Streptococcus faecalis (NCTC 775); assay: MIC, Streptococcus faecalis; format: cell-based
Method: (§3) The effects of compounds of the invention in relation to inhibiting the growth of various microorganisms was determined using methods known to those skilled in the art, for example in vitro methods as described in J. Med. Chem. 47, 2133-2156 (2004) and in vivo methods as described in J. Med. Microbiol. 46, 208-213 (1997), the disclosures of which documents are hereby incorporated by reference. In particular, minimum inhibitory concentrations (MICs) against microorganisms (e.g. S. Aureus, Streptococcus faecalis, Aspergillus niger, Candida albicans or Mycobacterium fortuitum) for compounds of the invention may be measured using procedures such as those described in A. J. Drummond and […] development of microbiological methods for phytochemical screening” Recent Res. Devel. […] The test wells on each 96 well microtitre plate were initially inoculated with culture medium (100 μL) using Mueller-Hinton Broth for antibacterial assays and Sabouraud Broth for antifungal assays. A solution of each test sample (100 μL) was added to one row of each plate and a series of doubling dilutions made for successive rows. Incubation was at 37° C. for antibacterial assay and 25° C. for antifungal assay. […] From the observed pattern of colour, the MIC was determined. All tests included sterility and growth controls.

[3] = system: Mycobacter fortuitum (NCTC 10394); assay: MIC, Mycobacter fortuitum; format: cell-based
Method: as §3

[4] = system: clinical strains of S. aureus in the Scottish Clinical Isolates Collection; assay: MIC against collected clinical strains of S. aureus (BSAC03/04/05 (1)-(10)); format: cell-based, Staphylococcus aureus
Excerpt: as §1, §2
BSAC03/04/05 (1)-(10) refer to collected clinical strains of S. aureus in the Scottish Clinical Isolates Collection.

[5] = system: Aspergillus niger (IMI 1745); assay: MIC, Aspergillus niger; format: cell-based
Method: as §3

[6] = system: Staphylococcus aureus Strain 2 (NCTC 6571); assay: MIC, Staphylococcus aureus Strain 2; format: cell-based
Method: as §3

[7] = system: Candida albicans (NCPF3179); assay: MIC, Candida albicans; format: cell-based
Method: as §3

DNA = details: background statement, cited from earlier work; for DNA sequence preference: result in words; for Kd: read-out: dissociation constants (binding to DNA)
[8] = value in parentheses, na = not active

Structure (SMILES): COc1ccc(/C=C/c2ccc(C(=O)Nc3cc(C(=O)Nc4cc(C(=O)NCCN5CCOCC5)n(C)c4)n(C)c3)cn2)cc1 [Example 22]
- Minimum inhibitory concentrations (MICs), S aureus 1 [1, 8]: 0.5 µg/mL (≈ 0.817 µM)
- MIC ([1]; value outside parentheses, read-out: Minimum inhibitory concentrations (MICs), S aureus 1): 0.69 µM (≈ 0.422 µg/mL)
- Minimum inhibitory concentrations (MICs), St. faecalis [2, 8]: 6.3 µg/mL (≈ 10.3 µM)
- MIC ([2]; value outside parentheses, read-out: Minimum inhibitory concentrations (MICs), St. faecalis): 8.6 µM (≈ 5.26 µg/mL)
- Minimum inhibitory concentrations (MICs), M. fortuitum [3, 8]: 50 µg/mL (≈ 81.7 µM)
- MIC ([3]; value outside parentheses, read-out: Minimum inhibitory concentrations (MICs), M. fortuitum): 69 µM (≈ 42.2 µg/mL)
- Minimum inhibitory concentrations (MICs) ([4]; S. aureus BSAC culture year 2003 number 1): 0.5 µg/mL (≈ 0.817 µM)
- Minimum inhibitory concentrations (MICs) ([4]; S. aureus BSAC culture year 2003 number 2): 4 µg/mL (≈ 6.54 µM)
- Minimum inhibitory concentrations (MICs) ([4]; S. aureus BSAC culture year 2003 number 3): 0.5 µg/mL (≈ 0.817 µM)
- Minimum inhibitory concentrations (MICs) ([4]; S. aureus BSAC culture year 2003 number 4): 0.5 µg/mL (≈ 0.817 µM)
- Minimum inhibitory concentrations (MICs) ([4]; S. aureus BSAC culture year 2003 number 5): 0.5 µg/mL (≈ 0.817 µM)
- Minimum inhibitory concentrations (MICs) ([4]; S. aureus BSAC culture year 2003 number 6): 1 µg/mL (≈ 1.63 µM)
- Minimum inhibitory concentrations (MICs) ([4]; S. aureus BSAC culture year 2003 number 7): 0.5 µg/mL (≈ 0.817 µM)
- Minimum inhibitory concentrations (MICs) ([4]; S. aureus BSAC culture year 2003 number 8): 0.5 µg/mL (≈ 0.817 µM)
- Minimum inhibitory concentrations (MICs) ([4]; S. aureus BSAC culture year 2003 number 9): 2 µg/mL (≈ 3.27 µM)
- Minimum inhibitory concentrations (MICs) ([4]; S. aureus BSAC culture year 2003 number 10): 0.5 µg/mL (≈ 0.817 µM)
- Minimum inhibitory concentrations (MICs) ([4]; S. aureus BSAC culture year 2004 number 1): 0.5 µg/mL (≈ 0.817 µM)
- Minimum inhibitory concentrations (MICs) ([4]; S. aureus BSAC culture year 2004 number 2): 4 µg/mL (≈ 6.54 µM)
- Minimum inhibitory concentrations (MICs) ([4]; S. aureus BSAC culture year 2004 number 3): 2 µg/mL (≈ 3.27 µM)
- Minimum inhibitory concentrations (MICs) ([4]; S. aureus BSAC culture year 2004 number 4): 2 µg/mL (≈ 3.27 µM)
- Minimum inhibitory concentrations (MICs) ([4]; S. aureus BSAC culture year 2004 number 5): 0.5 µg/mL (≈ 0.817 µM)
- Minimum inhibitory concentrations (MICs) ([4]; S. aureus BSAC culture year 2004 number 6): 0.5 µg/mL (≈ 0.817 µM)
- Minimum inhibitory concentrations (MICs) ([4]; S. aureus BSAC culture year 2004 number 7): 1 µg/mL (≈ 1.63 µM)
- Minimum inhibitory concentrations (MICs) ([4]; S. aureus BSAC culture year 2004 number 8): 1 µg/mL (≈ 1.63 µM)
- Minimum inhibitory concentrations (MICs) ([4]; S. aureus BSAC culture year 2004 number 9): 2 µg/mL (≈ 3.27 µM)
- Minimum inhibitory concentrations (MICs) ([4]; S. aureus BSAC culture year 2004 number 10): 1 µg/mL (≈ 1.63 µM)
- Minimum inhibitory concentrations (MICs) ([4]; S. aureus BSAC culture year 2005 number 1): 2 µg/mL (≈ 3.27 µM)
- Minimum inhibitory concentrations (MICs) ([4]; S. aureus BSAC culture year 2005 number 2): 8 µg/mL (≈ 13.1 µM)
- Minimum inhibitory concentrations (MICs) ([4]; S. aureus BSAC culture year 2005 number 3): 2 µg/mL (≈ 3.27 µM)
- Minimum inhibitory concentrations (MICs) ([4]; S. aureus BSAC culture year 2005 number 4): 0.5 µg/mL (≈ 0.817 µM)
- Minimum inhibitory concentrations (MICs) ([4]; S. aureus BSAC culture year 2005 number 5): 4 µg/mL (≈ 6.54 µM)
- Minimum inhibitory concentrations (MICs) ([4]; S. aureus BSAC culture year 2005 number 6): 0.5 µg/mL (≈ 0.817 µM)
- Minimum inhibitory concentrations (MICs) ([4]; S. aureus BSAC culture year 2005 number 7): 0.5 µg/mL (≈ 0.817 µM)
- Minimum inhibitory concentrations (MICs) ([4]; S. aureus BSAC culture year 2005 number 8): 4 µg/mL (≈ 6.54 µM)
- Minimum inhibitory concentrations (MICs) ([4]; S. aureus BSAC culture year 2005 number 9): 2 µg/mL (≈ 3.27 µM)
- Minimum inhibitory concentrations (MICs) ([4]; S. aureus BSAC culture year 2005 number 10): 1 µg/mL (≈ 1.63 µM)
- microbicidal activity against a number of different strains of Staphylococcus aureus ([4]; result in words): displayed microbicidal activity
- Minimum inhibitory concentrations (MICs), A. niger [5, 8]: 50 µg/mL (≈ 81.7 µM)
- MIC ([5]; value outside parentheses, read-out: Minimum inhibitory concentrations (MICs), A. niger): 69 µM (≈ 42.2 µg/mL)
- Minimum inhibitory concentrations (MICs), S. aureus 2 [6, 8]: 12.5 µg/mL (≈ 20.4 µM)
- MIC ([6]; value outside parentheses, read-out: Minimum inhibitory concentrations (MICs), S. aureus 2): 17.2 µM (≈ 10.5 µg/mL)
- Minimum inhibitory concentrations (MICs), C. albicans [7, 8]: 25 µg/mL (≈ 40.9 µM)
- MIC ([7]; value outside parentheses, read-out: Minimum inhibitory concentrations (MICs), C. albicans): 34 µM (≈ 20.8 µg/mL)

Structure (SMILES): Cn1cc(NC(=O)c2cc(NC(=O)CN=C(N)N)cn2C)cc1C(=O)NCCC(=N)N [Netropsin, netropsin]
- DNA sequence preference (DNA): preference for AT-rich regions of DNA
- Kd (DNA): ~10 µM

Structure (SMILES): Cn1cc(NC(=O)c2cc(NC(=O)c3cc(NC=O)cn3C)cn2C)cc1C(=O)NCCC(=N)N [distamycin]
- DNA sequence preference (DNA): preference for AT-rich regions of DNA
- Kd (DNA): ~10 µM

— patent US8012967B2, “Minor groove binders” (University of Strathclyde, priority 2006, dated 2011)
